Test results from patent US8183364B2, “Substituted porphyrins” (Duke University, priority 2004, dated 2012).

Tests used:
[1] = Catalysis of O2.^− dismutation by pulse radiolysis; type: biochemical; conditions: for log kcat for O2^− dismutation: pulse radiolysis, pH 7.8, (22 ± 1) °C, kcat ±30%
Procedure: Catalysis of O2.^− dismutation. The catalytic rate constants for the O2.^− dismutation were determined by pulse radiolysis in 0.05 M phosphate buffer (pH 7.8) at (22±1)° C. as previously described (Batinic-Haberle et al, Inorg. Chem. 40:726 (2001)). In the present study 10 mM formate was used as a scavenger for H. atoms and .OH radicals, which leads first to production of CO2.^− radicals and then to O2.^− radicals. This system is known to lead to conversion of all primary radicals of water radiolysis into O2.^−.
Catalysis of O2.^− dismutation. Pulse radiolysis was used to assess the SOD-like activities of the Mn porphyrins studied. The initial concentration of O2.^− produced by the pulse was about 27 μM, and the concentration of the Mn porphyrin was between 0.5 and 5 μM. The dismutation of O2.^− was followed at 280 nm. The catalytic rate constant was determined from the linear dependence of kobs upon the concentration of the catalyst (Batinic-Haberle et al, Inorg. Chem. 40:726 (2001)). All the new compounds have high O2.^− dismuting ability. The magnitude of the catalysis is due to the interplay of the electron-withdrawing effects of quaternized ortho pyridyl or di-ortho imidazolyl groups, favorable electrostatics, and the solvation of the metal site.

[2] = Thin-layer chromatography on silica gel (retention factor Rf, lipophilicity); type: physicochemical; conditions: silica gel TLC, KNO3-saturated H2O/H2O/acetonitrile = 1/1/8; for Rf (compound path/solvent path), metal-free porphyrin (in parenthesis): metal-free ligand of the named Mn porphyrin
Procedure: Uv/vis spectra of porphyrin ligands and their Mn complexes were taken on a Shimadzu UV-2501-PC spectrophotometer at 25° C. Thin-layer chromatography of ligands and Mn complexes was done using silica gel plates with KNO3satH2O/H2O/acetonitrile=1/1/8.
Thin-layer chromatography. All new methoxyporphyrins are more lipophilic than MnTE-2-PyP^5+ and MnTDE-2-ImP^5+.

[3] = system: SOD-deficient JI132 E. coli; test: Aerobic growth of SOD-deficient E. coli; type: cell-based; conditions: for aerobic growth of SOD-deficient E. coli: 5AA minimal medium
How it was run: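 Strains were AB1157 and its sodA sodB mutant JI132, precultured overnight in M9CA at 37 °C, then diluted to 3×10^7 cells/mL in M9CA or, after washing, in 5AA minimal medium. Mn porphyrins at 0.1 to 30 μM were present during aerobic shaking at 37 °C. Growth rate was followed by turbidity at 700 nm.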

[4] = Oxidative degradation in the presence of ascorbic acid under aerobic conditions; type: physicochemical; conditions: pH 7.8 (0.05 M tris buffer)
How it was run: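 Mn porphyrins exposed to ascorbic acid under aerobic conditions; percentage of porphyrin degraded within 2 hours recorded.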

[5] = Kinetic salt effect on O2.^− dismutation by cytochrome c assay; type: biochemical; conditions: 0.05 M phosphate buffer, pH 7.8, 0-0.4 M NaCl
Procedure: Kinetic salt effect. The dependence of the catalytic rate constant for the O2.^− dismutation upon ionic strength was determined by cytochrome c assay (McCord and Fridovich, J. Biol. Chem. 244:6049 (1969)) in 0.05 M phosphate buffer, pH 7.8 with NaCl ranging from 0 to 0.4 M. In doing this, the effect of ionic strength on the rate of the O2.^−/cytochrome c reaction was corrected for.
Kinetic salt effect. The effect of the ionic strength (μ) on the catalytic rate constant was assessed using eq which is based on Debye-Huckel relation (Hambright et al, J. Porphyrins Phthalocyanines 7:139-146 (2003)) for the effect of the ionic strength of the solution on the activity coefficient of an ion. log k=log kref+2AzAzBμ^1/2/(1+μ^1/2) The k is the rate constant at any given ionic strength, while kref is the rate constant at μ=0. The A is a collection of physical constants with a value of 0.509 and zA and zB are the charges of the reacting species. The equation predicts a linear plot of log k vs μ^1/2/(1+μ^1/2). Eq assumes a coefficient of 1.0 (βai) for μ^1/2 in the denominator, i.e., the distance of the closest approach, ai to be 3 A and β is a physical constant, […]. It is doubtful whether great significance can be attributed to the ai, thus to the product zAzB (Hambright et al, J. Porphyrins Phthalocyanines 7:139-146 (2003)), especially so in the light of the bulkiness, high charge and solvation shell of the metalloporphyrins. Accounting for the mono- and diprotonated phosphates as the major species at pH 7.8 (pKa=7.2), and the concentration of the NaCl, the ionic strength was calculated using equation μ=½ Σ mizi^2 where mi is the molality and zi the charge of the given ion.
The slopes of the plots are −6.48 (MnTE-2-PyP^5+), −7.02 (MnTMOE-2-PyP^5+), −7.38 (MnTDMOE-2-ImP^5+), and −4.15 (MnTnBu-2-PyP^5+). As expected (Hambright et al, J. Porphyrins Phthalocyanines 7:139-146 (2003)), when the reactants are ions of opposite charges, the higher the ionic strength of the solution the lower the rate constants, i.e. the slopes are negative. The slopes of the plots indicate clearly the impact of the local dielectric constant on the kcat. The kcat of the most lipophilic compound, MnTnBu-2-PyP^5+ is 40% less sensitive to the changes in ionic strength of the solution than is the kcat of its methoxyethyl analogue, MnTMOE-2-PyP^5+.

| Structure (SMILES) | log kcat for O2^− dismutation [1] | Rf (compound path/solvent path), metal-free porphyrin (in parenthesis) [2] | Rf (compound path/solvent path), Mn complex [2] | aerobic growth of SOD-deficient E. coli ([3]; 3 μM) | aerobic growth of SOD-deficient E. coli ([3]; 25 μM) | protection of SOD-deficient E. coli ([3]; M9CA medium, 3 μM) | protection of E. coli from oxidative stress ([3]; ≦3 μM levels (FIG. 10: 5AA minimal medium)) | degradation within 2 hours [4] [%] | slope of log kcat vs μ^1/2/(1+μ^1/2) [5] | SOD-like activity relative to MnTE-2-PyP^5+ ([1]; vs MnTE-2-PyP^5+) | kcat higher than MnTnBu-2-PyP^5+ ([1]; vs MnTnBu-2-PyP^5+) [fold] |
| --- | --- | --- | --- | --- | --- | --- | --- | --- | --- | --- | --- |
| COCCn1cc[n+](CCOC)c1-c1c2nc(c(-c3n(CCOC)cc[n+]3CCOC)c3ccc([n-]3)c(-c3n(CCOC)cc[n+]3CCOC)c3nc(c(-c4n(CCOC)cc[n+]4CCOC)c4ccc1[n-]4)C=C3)C=C2.[Mn+3] [MnTDMOE-2-ImP^5+, Mn(III) tetrakis 5,10,15,20-tetrakis[N,N′-di(2-methoxyethyl)imidazolium-2-yl]porphyrin] | 7.59 | 0.24 | 0.21 | the most effective methoxyethyl porphyrin | not far behind | the most effective (next to n-butyl and n-hexyl) | the most protective | 2 | −7.38 | – | – |
| COCC[n+]1ccccc1-c1c2nc(c(-c3cccc[n+]3CCOC)c3ccc([n-]3)c(-c3cccc[n+]3CCOC)c3nc(c(-c4cccc[n+]4CCOC)c4ccc1[n-]4)C=C3)C=C2.[Mn+3] [MnTMOE-2-PyP^5+, Mn(III) tetrakis 5,10,15,20-tetrakis[N-(2-methoxyethyl)pyridinium-2-yl]porphyrin] | 8.04 | 0.18 | 0.16 | – | not far behind | – | – | 24 | −7.02 | two-fold higher | 6 |
